Patent US20230010299A1, “HETEROCYCLIC TRPML1 AGONISTS” (LIBRA THERAPEUTICS, INC., priority 2019, published 2023)
Read-outs that look alike come from different tables or passages of the source.

Columns and labels:
TRPML1 = target: T1, TRPML1 (Homo sapiens, UniProt Q9GZU1); assay: Cellular TRPML1 assay (FLIPR TETRA, GCaMP6f calcium read-out); assay type: cell-based; settings: HEK T-REx/GCaMP6f/TRPML1 cells; Ca2+ response over 300 s, normalized to ML-SA1 50 μM; Ca2+ free or Optimem condition not given; read-out: Ec50 (Activity of TRPML1 agonists)
T1 construct: expressed in transfected cells
T1 sequence (Q9GZU1 whole entry): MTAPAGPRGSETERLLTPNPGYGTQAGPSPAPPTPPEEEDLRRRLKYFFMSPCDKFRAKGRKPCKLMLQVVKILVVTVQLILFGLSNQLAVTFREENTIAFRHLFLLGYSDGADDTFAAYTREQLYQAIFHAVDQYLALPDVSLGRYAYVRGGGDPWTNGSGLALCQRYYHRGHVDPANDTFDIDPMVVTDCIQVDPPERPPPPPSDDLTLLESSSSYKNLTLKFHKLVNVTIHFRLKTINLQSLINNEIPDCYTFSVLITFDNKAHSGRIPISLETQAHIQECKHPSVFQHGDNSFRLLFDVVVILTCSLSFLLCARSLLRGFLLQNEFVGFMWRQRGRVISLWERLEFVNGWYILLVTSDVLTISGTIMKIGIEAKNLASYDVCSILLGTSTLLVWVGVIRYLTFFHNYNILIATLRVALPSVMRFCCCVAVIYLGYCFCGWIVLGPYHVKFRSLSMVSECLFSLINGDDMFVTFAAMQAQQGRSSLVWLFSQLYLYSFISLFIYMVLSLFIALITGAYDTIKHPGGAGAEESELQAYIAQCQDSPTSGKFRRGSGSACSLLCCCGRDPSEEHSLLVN
Method in brief: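 HEK T-REx cells stably expressing TRPML1 and GCaMP6f, assayed 24 h after seeding in Ca2+-free Tyrode's (pH 7.4) or Opti-MEM. Compounds injected on FLIPR Tetra (0.5% DMSO) in dose-response from 100 μM (1:2) or 50 μM (1:3.16); fluorescence kinetics 300 s, referenced to 50 μM ML-SA1 stimulator control.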

[1] = test system: autophagy reporter Rosella (LC3 tag) in HeK293 cell line; assay: Autophagy assay (reporter Rosella, imaging); assay type: cell-based; settings: HeK293 cells stably expressing reporter Rosella, 18 hours incubation, reference Torin-1 1 μM as max signal, read-out: Secondary Assays Autophagy qAC50
Description: Buffers and Reagents • Tyrode's buffer with 2 mM Ca^2+ in-house solution (130 mM NaCl, 5 mM KCl, 2 mM CaCl2), 1 mM MgCl2, 5 mM NaHCO3, 20 mM HEPES in water at pH 7.4; sterile filtered) • DMSO (Sigma) • Bis-benzimide H 33342 trihydrochloride (Hoechst 33342; Sigma-Aldrich) • Reference molecule (agonist): Torin-1, (#4247, Tocris) stock 1.2 mM in DMSO, stored at −20° C.
Reporter of Autophagy and Cell Line
Reporter Rosella: a fluorescent-based chimera constitutes by two fluorescent proteins, Green and Red variants, acting as a bimodal indicator of pH. […] The reporter is fused to sequence for autophagosome localization (LC3 tag).
The reporter Rosella have been stably expressed in HeK293 cell line and used as read-out.
Experiments have been performed in 384 MTP poly-lysine coated well format. Cells have been seeded in 384-w at a density of 6000 cells/well in 25 μl/well complete growth medium without antibiotics. Twenty-four hours later, cells have been treated with compounds and incubated for further 18 hours. Then the cells have been imaged and assayed for the response to various compounds using the reporter for autophagy expressed in the cells as readout.
The experiments were performed in a 384-well format according to the following procedure: • 24 h after seeding, cells were incubated with compounds at the desired concentration, and with the reference molecule (agonist) Torin-1 at a top concentration of 1 μM (max signal), for 18 hours at 37° C. and 5% CO2. The final percentage of DMSO was 0.3% in all the conditions. • Then the culture medium was carefully removed to avoid cells detachment and to discard red phenol into the medium and that can interfere with the measurements. • Staining of the nuclei was obtained by incubating the cells with 8 μM/well of Hoechst 3342 in standard Tyrode's buffer for 20 min at RT • Then the cells were carefully washed two times with standard Tyrode's buffer • Finally, the samples were acquired by recording three fluorescence emission channels (green, red and blue) at 20× magnification and with at least 3-4 fields of view per well in an Operetta CLS microscope (PerkinElmer). • Image analysis was performed by using Harmony software (PerkinElmer). The image analysis involved the following steps: flat-field illumination correction, nuclei segmentation, cell segmentations and identification of vesicles/granules within the cytosol compartments and representing the autophagy vesicles. Measurements of signal intensity ratio (Green to Red) and number of autophagy vesicles per cells were used to obtain information on the effects of compounds on the autophagy flux. • Data from image analysis measurements were finally loaded and analyzed for normalization and fitting procedures in Genedata Screener© software.

EC50 (TRPML1) | Structure (SMILES) | EC50 ([1]; Homo sapiens) | EC50 [1]
10.8 µM | CN(C)S(=O)(=O)c1ccc(S(=O)(=O)Nc2ccccc2N2CCC(F)(F)CC2)cc1 [Example 33, N4-[2-(4,4-difluoropiperidin-1-yl)phenyl]-N1,N1-dimethylbenzene-1,4-disulfonamide] | 1.3 µM | 
3 µM | COC1CCCN(c2ccccc2NS(=O)(=O)c2ccc(S(=O)(=O)N(C)C)cc2)CC1 (racemic) [Example 40, N1-(2-(4-methoxyazepan-1-yl)phenyl)-N4,N4-dimethylbenzene-1,4-disulfonamide] | 1.3 µM | 
3.4 µM | CCN(C(=O)c1ccc(S(=O)(=O)N(C)C)cc1)c1ccccc1N1CCN(C(=O)OC(C)(C)C)CC1 [Example 20, tert-butyl 4-(2-(4-(N,N-dimethylsulfamoyl)-N-ethylbenzamido)phenyl)piperazine-1-carboxylate] | 0.46 µM | 
3.5 µM | Cc1ccc(S(=O)(=O)Nc2ccccc2N2CCC(Oc3ccccn3)CC2)c(C)c1 [Example 65, 2,4-dimethyl-N-(2-(4-(pyridin-2-yloxy)piperidin-1-yl)phenyl)benzenesulfonamide] | 31.4 µM | 
7.3 µM | CC(C)N(C(=O)c1ccc(S(C)(=O)=O)cc1)c1ccccc1N1CCN(C(=O)OC(C)(C)C)CC1 [Example 96, tert-butyl 4-(2-(N-isopropyl-4-(methylsulfonyl)benzamrdo)phenyl)piperazine-1-carboxylate] |  | 11.2 µM
2.3 µM | Cc1cc(S(=O)(=O)Nc2ccccc2N2CCN(C(=O)OC(C)(C)C)CC2)c(C)o1 [Example 58, tert-butyl 4-(2-((2,5-dimethylfuran)-3-sulfonamido)phenyl)piperazine-1-carboxylate] | 22.4 µM | 
2.1 µM | CCc1ccc(S(=O)(=O)Nc2ccccc2N2CCC(C(=O)OC(C)(C)C)CC2)cc1 [Example 19, tert-butyl 1-(2-((4-ethylphenyl)sulfonamido)phenyl)piperidine-4-carboxylate] | 0.6 µM | 
4.6 µM | CCCOC1CCN(c2ccccc2NS(=O)(=O)c2cc(C)sc2C)CC1 [Example 68, 2,5-dimethyl-N-(2-(4-propoxypiperidin-1-yl)phenyl)thiophene-3-sulfonamide] | 15.3 µM | 
9.4 µM | CC(C)N(C(=O)c1ccc(S(=O)(=O)N(C)C)cc1)c1ccccc1N1CCN(C(=O)OC(C)(C)C)CC1 [Example 46, tert-butyl 4-(2-(4-(N,N-dimethylsulfamoyl)-N-isopropylbenzamido)phenyl)piperazine-1-carboxylate] | 1.3 µM | 
5 µM | Cc1nc(S(=O)(=O)Nc2ccccc2N2CCC(Oc3ccccn3)CC2)c(C)s1 [Example 99, 2,5-dimethyl-N-(2-(4-(pyridin-2-yloxy)piperidin-1-yl)phenyl)thiazole-4-sulfonamide] | 6 µM | 
